According to the supplement of paper PMC11061612:

What was measured:
Carboplatin = compound: C1CC(C1)(C(=O)[O-])C(=O)[O-].N.N.[Pt+2] [Carboplatin]; details: max 10 µM
Outline: (§1)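 Plates with 1536 wells received cancer cell lines in 7.5 μl of DMEM/F12 or RPMI containing 10% FBS. After 24 hours at 37°C and 5% CO2, cells were dosed for 72 hours with final DMSO typically 0.2%, and viability was read by CellTiter-Glo 2.0 luminescence scaled between blank-well and DMSO-well means. The single-agent IC50 was taken from a logistic fit of the dose responses made with a non-linear mixed effects model, that logistic curve having two parameters.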

AZD5363 = compound: C1CN(CCC1(C(=O)N[C@@H](CCO)C2=CC=C(C=C2)Cl)N)C3=NC=NC4=C3C=CN4 [AZD5363]; details: max 10 µM
Outline: as §1

AZD1775 = compound: C=CCn1c(=O)c2cnc(Nc3ccc(N4CCN(C)CC4)cc3)nc2n1-c1cccc(C(C)(C)O)n1 [AZD1775]; details: max 3 µM
Outline: as §1

Trametinib = compound: CC(=O)Nc1cccc(-n2c(=O)n(C3CC3)c(=O)c3c(Nc4ccc(I)cc4F)n(C)c(=O)c(C)c32)c1 [Trametinib]; details: max 1 µM
Outline: as §1

Paclitaxel = compound: CC(=O)O[C@H]1C(=O)[C@@]2(C)[C@H]([C@H](OC(=O)c3ccccc3)[C@]3(O)C[C@H](OC(=O)[C@H](O)[C@@H](NC(=O)c4ccccc4)c4ccccc4)C(C)=C1C3(C)C)[C@]1(OC(C)=O)CO[C@@H]1C[C@@H]2O [Paclitaxel]; details: max 3 µM
Outline: as §1

Palbociclib = compound: CC(=O)c1c(C)c2cnc(Nc3ccc(N4CCNCC4)cn3)nc2n(C2CCCC2)c1=O [Palbociclib]; details: max 10 µM
Outline: as §1

AZD1390 = compound: CC(C)n1c(=O)n(C)c2cnc3cc(F)c(-c4ccc(OCCCN5CCCCC5)nc4)cc3c21 [AZD1390]; details: max 0.3 µM
Outline: as §1

Venetoclax = compound: CC1(C)CCC(CN2CCN(c3ccc(C(=O)NS(=O)(=O)c4ccc(NCC5CCOCC5)c([N+](=O)[O-])c4)c(Oc4cnc5[nH]ccc5c4)c3)CC2)=C(c2ccc(Cl)cc2)C1 [Venetoclax]; details: max 1 µM
Outline: as §1

Dasatinib = compound: CC1=C(C(=CC=C1)Cl)NC(=O)C2=CN=C(S2)NC3=CC(=NC(=N3)C)N4CCN(CC4)CCO [Dasatinib]; details: max 2 µM
Outline: as §1

SG3199 = compound: CC1=CN2[C@@H](C1)C=NC3=CC(=C(C=C3C2=O)OC)OCCCCCOC4=C(C=C5C(=C4)N=C[C@@H]6CC(=CN6C5=O)C)OC [SG3199]; details: max 0.001 µM
Outline: as §1

AZD2811 = compound: CCN(CCO)CCCOc1ccc2c(Nc3cc(CC(=O)Nc4cccc(F)c4)[nH]n3)ncnc2c1 [AZD2811]; details: max 1 µM
Outline: as §1

SN-38 = compound: CCc1c2c(nc3ccc(O)cc13)-c1cc3c(c(=O)n1C2)COC(=O)[C@]3(O)CC [SN-38]; details: max 0.3 µM
Outline: as §1

AZD0156 = compound: CN(C)CCCOc1ccc(-c2ccc3ncc4c(c3c2)n(C2CCOCC2)c(=O)n4C)cn1 [AZD0156]; details: max 3 µM
Outline: as §1

AZD4320 = compound: CN(CC[C@H](CSC1=CC=CC=C1)NC2=C(C=C(C=C2)S(=O)(=O)NC(=O)C3=CC=C(C=C3)N4CCC(CC4)[C@H](C5=CC=CC=C5C6=CC=C(C=C6)Cl)O)S(=O)(=O)C(F)(F)F)CCO [AZD4320]; details: max 1 µM
Outline: as §1

Alisertib = compound: COc1cc(Nc2ncc3c(n2)-c2ccc(Cl)cc2C(c2c(F)cccc2OC)=NC3)ccc1C(=O)O [Alisertib]; details: max 10 µM
Outline: as §1

Etoposide = compound: COc1cc([C@@H]2c3cc4c(cc3[C@@H](O[C@@H]3O[C@@H]5CO[C@@H](C)O[C@H]5[C@H](O)[C@H]3O)[C@H]3COC(=O)[C@H]23)OCO4)cc(OC)c1O [Etoposide]; details: max 10 µM
Outline: as §1

Gefitinib = compound: COc1cc2ncnc(Nc3ccc(F)c(Cl)c3)c2cc1OCCCN1CCOCC1 [Gefitinib]; details: max 10 µM
Outline: as §1

Prexasertib = compound: COc1cccc(OCCCN)c1-c1cc(Nc2cnc(C#N)cn2)n[nH]1 [Prexasertib]; details: max 1 µM
Outline: as §1

Doxorubicin = compound: COc1cccc2c1C(=O)c1c(O)c3c(c(O)c1C2=O)C[C@@](O)(C(=O)CO)C[C@@H]3O[C@H]1C[C@H](N)[C@H](O)[C@H](C)O1 [Doxorubicin]; details: max 1 µM
Outline: as §1

AZD5153 = compound: COc1nnc2ccc(N3CCC(c4ccc(OCCN5CCN(C)C(=O)[C@H]5C)cc4)CC3)nn12 [AZD5153]; details: max 1 µM
Outline: as §1

Lapatinib = compound: CS(=O)(=O)CCNCc1ccc(-c2ccc3ncnc(Nc4ccc(OCc5cccc(F)c5)c(Cl)c4)c3c2)o1 [Lapatinib]; details: max 10 µM
Outline: as §1

AZD8186 = compound: C[C@@H](Nc1cc(F)cc(F)c1)c1cc(C(=O)N(C)C)cc2c(=O)cc(N3CCOCC3)oc12 [AZD8186]; details: max 10 µM
Outline: as §1

Crizotinib = compound: C[C@@H](Oc1cc(-c2cnn(C3CCNCC3)c2)cnc1N)c1c(Cl)ccc(F)c1Cl [Crizotinib]; details: max 10 µM
Outline: as §1

Savolitinib = compound: C[C@@H](c1ccc2nccn2c1)n1nnc2ncc(-c3cnn(C)c3)nc21 [Savolitinib]; details: max 1 µM
Outline: as §1

AZD6738 = compound: C[C@@H]1COCCN1C2=NC(=NC(=C2)C3(CC3)[S@](=N)(=O)C)C4=C5C=CNC5=NC=C4 [AZD6738]; details: max 10 µM
Outline: as §1

AZD5991 = compound: Cc1c2c(nn1C)CSCc1cc(n(C)n1)CSc1cc(c3ccccc3c1)OCCCc1c(C(=O)O)n(C)c3c-2c(Cl)ccc13 [AZD5991]; details: max 1 µM
Outline: as §1

AZD7648 = compound: Cc1cc2ncnn2cc1Nc1ncc2c(n1)n(C1CCOCC1)c(=O)n2C [AZD7648]; details: max 10 µM
Outline: as §1

Taselisib = compound: Cc1nc(-c2cn3c(n2)-c2ccc(-c4cnn(C(C)(C)C(N)=O)c4)cc2OCC3)n(C(C)C)n1 [Taselisib]; details: max 10 µM
Outline: as §1

Selumetinib = compound: Cn1cnc2c(F)c(Nc3ccc(Br)cc3Cl)c(C(=O)NOCCO)cc21 [Selumetinib]; details: max 10 µM
Outline: as §1

SRA737 = compound: N#Cc1cnc(Nc2cc(NC[C@H]3CNCCO3)c(C(F)(F)F)cn2)cn1 [SRA737]; details: max 10 µM
Outline: as §1

MK-2206 = compound: NC1(c2ccc(-c3nc4ccn5c(=O)[nH]nc5c4cc3-c3ccccc3)cc2)CCC1 [MK-2206]; details: max 10 µM
Outline: as §1

Gemcitabine = compound: Nc1ccn([C@@H]2O[C@H](CO)[C@@H](O)C2(F)F)c(=O)n1 [Gemcitabine]; details: max 0.3 µM
Outline: as §1

[1] = compound: O=C(Nc1ccc2[nH]nc(-c3ccncc3)c2c1)[C@@H]1CCN(CC(=O)N2CCN(c3ccc(-c4ncccn4)cc3)CC2)C1; details: max 5 µM
Outline: as §1

Olaparib = compound: O=C(c1cc(Cc2n[nH]c(=O)c3ccccc23)ccc1F)N1CCN(C(=O)C2CC2)CC1 [Olaparib]; details: max 10 µM
Outline: as §1

5-Fluorouracil = compound: O=c1[nH]cc(F)c(=O)[nH]1 [5-Fluorouracil]; details: max 20 µM
Outline: as §1

Cell Line	IC50, cell viability 72 h (Carboplatin)	IC50, cell viability 72 h (AZD5363)	IC50, cell viability 72 h (AZD1775)	IC50, cell viability 72 h (Trametinib)	IC50, cell viability 72 h (Paclitaxel)	IC50, cell viability 72 h (Palbociclib)	IC50, cell viability 72 h (AZD1390)	IC50, cell viability 72 h (Venetoclax)	IC50, cell viability 72 h (Dasatinib)	IC50, cell viability 72 h (SG3199)	IC50, cell viability 72 h (AZD2811)	IC50, cell viability 72 h (SN-38)	IC50, cell viability 72 h (AZD0156)	IC50, cell viability 72 h (AZD4320)	IC50, cell viability 72 h (Alisertib)	IC50, cell viability 72 h (Etoposide)	IC50, cell viability 72 h (Gefitinib)	IC50, cell viability 72 h (Prexasertib)	IC50, cell viability 72 h (Doxorubicin)	IC50, cell viability 72 h (AZD5153)	IC50, cell viability 72 h (Lapatinib)	IC50, cell viability 72 h (AZD8186)	IC50, cell viability 72 h (Crizotinib)	IC50, cell viability 72 h (Savolitinib)	IC50, cell viability 72 h (AZD6738)	IC50, cell viability 72 h (AZD5991)	IC50, cell viability 72 h (AZD7648)	IC50, cell viability 72 h (Taselisib)	IC50, cell viability 72 h (Selumetinib)	IC50, cell viability 72 h (SRA737)	IC50, cell viability 72 h (MK-2206)	IC50, cell viability 72 h (Gemcitabine)	IC50, cell viability 72 h [1]	IC50, cell viability 72 h (Olaparib)	IC50, cell viability 72 h (5-Fluorouracil)
P31-FUJ (Acute Myeloid Leukemia)	> 10 µM	2.41 µM	0.0831 µM	0.616 µM	0.00509 µM	> 10 µM	> 0.3 µM	0.758 µM	> 2 µM	> 0.001 µM	0.024 µM	0.0117 µM	> 3 µM	0.243 µM	1.06 µM	2.76 µM	> 10 µM	0.00272 µM	0.255 µM	0.148 µM	> 10 µM	> 10 µM	1.74 µM	> 1 µM	1.29 µM	0.157 µM	> 10 µM	3.31 µM	8.97 µM	0.534 µM	1.68 µM	0.179 µM	1.57 µM	> 10 µM	> 20 µM
SK-LMS-1 (Other Solid Carcinomas)	> 10 µM	> 10 µM	1.63 µM	0.484 µM	0.0161 µM	> 10 µM	> 0.3 µM	> 1 µM	> 2 µM	> 0.001 µM	> 1 µM	0.00812 µM	> 3 µM	> 1 µM	8.33 µM	4.43 µM	> 10 µM	0.386 µM	0.511 µM	> 1 µM	> 10 µM	7.78 µM	9.41 µM	> 1 µM	> 10 µM	> 1 µM	> 10 µM	4.11 µM	> 10 µM	> 10 µM	> 10 µM	0.0174 µM	4.53 µM	> 10 µM	> 20 µM
SK-MEL-1 (Melanoma)	> 10 µM	> 10 µM	> 3 µM	0.00525 µM	> 3 µM	> 10 µM	> 0.3 µM	> 1 µM	> 2 µM	> 0.001 µM	> 1 µM	0.135 µM	> 3 µM	> 1 µM	> 10 µM	> 10 µM	> 10 µM	0.659 µM	> 1 µM	> 1 µM	> 10 µM	> 10 µM	> 10 µM	> 1 µM	> 10 µM	> 1 µM	> 10 µM	> 10 µM	0.509 µM	> 10 µM	> 10 µM	> 0.3 µM	0.846 µM	> 10 µM	> 20 µM
SK-UT-1 (Other Solid Carcinomas)	> 10 µM	> 10 µM	1.1 µM	> 1 µM	0.0282 µM	> 10 µM	> 0.3 µM	> 1 µM	> 2 µM	> 0.001 µM	> 1 µM	0.0227 µM	> 3 µM	> 1 µM	> 10 µM	3.4 µM	> 10 µM	0.0216 µM	0.971 µM	0.694 µM	> 10 µM	> 10 µM	> 10 µM	> 1 µM	4.17 µM	> 1 µM	> 10 µM	8.85 µM	> 10 µM	3.42 µM	> 10 µM	0.00912 µM	> 5 µM	> 10 µM	> 20 µM
SLVL (B-Cell Non-Hodgkin's Lymphoma)	> 10 µM	4.58 µM	0.836 µM	0.402 µM	0.00606 µM	> 10 µM	> 0.3 µM	> 1 µM	1.81 µM	> 0.001 µM	0.195 µM	0.00235 µM	> 3 µM	0.428 µM	0.148 µM	0.85 µM	> 10 µM	0.0199 µM	0.0768 µM	0.101 µM	> 10 µM	> 10 µM	7.08 µM	> 1 µM	3.76 µM	> 1 µM	> 10 µM	5.56 µM	9.51 µM	2.52 µM	> 10 µM	0.0151 µM	> 5 µM	> 10 µM	1.56 µM
